Data on 3 molecules can be found in patent US8207403B2, “EPSP synthase with high glyphosate resistance and its encoded sequence” (Biotechnology Research Institute The Chinese Academy of …, priority 2007, dated 2012).

Series [1] relates to GR-79 EPSP synthase (5-enolpyruvylshikinate-3-phosphate synthase), SEQ ID NO:1. Description: EPSP synthase enzyme activity and kinetic parameters (inorganic phosphorus release, PEP + S3P). The series is classed as biochemical. On the procedure:
(§1) Standard curve of inorganic phosphorus: 10 mM inorganic phosphorus was diluted at 1:10, and 0, 1, 2, 3 . . . 20 μl was taken into 1.5 ml Eppendorf tube and milli-Q purified water was added up to 100 μl with mixing, 0.8 ml MAT solution was added with mixing, and then 100 μl 34% SC solution was quickly added with mixing after 3 min, kept at room temperature for 20 min and then the OD660 value was determined. Repeat the operations three times as above. The standard curve of inorganic phosphorus was achieved using the concentration of inorganic phosphorus as abscissa and the OD660 value as ordinate.
(§2) 1) Enzyme activity test: The crude protein extracted with enzyme was quantified using Coomassie Blue G-250 method (Bradford, 1976). The follow solutions were added into 1.5 ml Eppendorf tube on the ice: 2 μl of 10 mM PEP solution, 2 μl of 10 mM S3P solution, 2 μl of 0.5M HEPES solution, 2 μl of 1 mM (NH4)6MO7O24.4H2O solution and 12 μl of milli-Q purified water with mixing, bathed at 28° C. for 5 min and 1 μl crude enzyme solution was added into each, tube at intervals and timing, 200 μl MAT solution was added after 2 min at 2s intervals again, color development was performed for 3 min, and then 20 μl of 34% SC solution was added at 2s intervals and quickly mixed well, the color was developed for 20 min at room temperature and finally the OD660 value was determined. […]

Series [2] concerns E. coli ER2799 (EPSP synthase defective) carrying pACYCGR-79 (GR-79-ER). Description: Glyphosate tolerance test, strain GR-79-ER. The series is classed as cell-based. Conditions: M9 liquid medium, 37° C., 36 h, OD600. On the procedure: FIG. 1 is a graph of analysis of glyphosate resistance of clone GR-79, wherein: GR-79-ER strain was a strain with glyphosate resistance obtained by cutting the total DNA of soil with enzyme partly, ligating the vector pACYC 184 and introducing into EPSP synthase defective E. coli ER2799 strain (NEB Company).
(§3) The three strains were respectively inoculated into the limited medium M9 with the glyphosate concentration of 0, 20, 50, 80, 100, 120, 150, 200, 250, 300 mM, shaking cultured at 37° C. for 36 h, the absorbance values were determined at OD600 and the figure was plotted with the values.
(§4) E. coli ER2799 (containing new cloned pACYCGR-79 plasmid) was inoculated into M9 liquid medium (Cm^r) with 0-200 mm glyphosate, shaking cultured at 37° C. for 36 h, and the OD600 value of culture was determined. E. coli ER2799 with plasmid without insert was used as negative control.

The test system of series [3] is E. coli ER2799 (EPSP synthase defective) with EPSP synthase gene from Agrobacterium sp. cp4 (CP4-ER). Description: Glyphosate tolerance test, positive control strain CP4-ER. The series is classed as cell-based. The conditions noted are these: M9 liquid medium, 37° C., 36 h, OD600. On the procedure:
CP4-ER strain was a strain with glyphosate resistance obtained by ligating the EPSP synthase gene from Agrobacterium sp. cp4 to the vector pACYC 184 and introducing into EPSP synthase defective E. coli ER2799 strain (NEB Company). It was used as a positive control in the figure.
as §3, §4

Series [4] has as its system transgenic tobacco with GR-79 EPSP synthase gene. The experiment in a line: Glyphosate resistance gradient assay of transgenic tobacco. It is filed as in vivo. The conditions noted are these: greenhouse. An excerpt: The plant expression vector of EPSP synthase gene with high glyphosate resistance was constructed and transgenic tobaccos were constructed by transformation using leaf disc cocultivation.
(8) The plants were removed when the root systems were large, the solid medium attached was washed off with sterile water, and the plants were transferred into the soil, covered with a glass cover for several days at the beginning days, and the cover was removed after the plants were robust, and then the plants were transferred to the solid medium with 10 mM glyphosate to screen the plant strains with glyphosate resistance;

Series [5] concerns the target GR-79 EPSP (uncultured soil bacterium (soil metagenome), UniProt A5Y5A5). Description: Enzyme activity test of EPSP synthase (inorganic phosphorus release). The series is classed as biochemical. Conditions: crude enzyme, PEP and S3P substrates, 28° C., OD660. On the procedure: as §1, §2

Chain of GR-79 EPSP (A5Y5A5 entry or part of it): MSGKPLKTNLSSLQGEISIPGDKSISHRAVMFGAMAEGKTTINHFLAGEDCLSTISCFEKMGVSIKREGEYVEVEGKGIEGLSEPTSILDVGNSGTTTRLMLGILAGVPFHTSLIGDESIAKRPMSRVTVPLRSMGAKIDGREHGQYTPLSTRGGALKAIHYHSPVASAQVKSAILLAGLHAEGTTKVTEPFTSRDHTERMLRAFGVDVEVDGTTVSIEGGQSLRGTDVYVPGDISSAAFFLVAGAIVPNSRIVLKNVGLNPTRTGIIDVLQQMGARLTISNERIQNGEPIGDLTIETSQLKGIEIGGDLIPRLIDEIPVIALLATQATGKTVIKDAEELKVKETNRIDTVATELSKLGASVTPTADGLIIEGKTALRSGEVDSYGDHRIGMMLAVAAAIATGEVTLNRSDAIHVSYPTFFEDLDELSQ

As for `C=C(OP(=O)(O)O)C(=O)O` [PEP], the Km in series [1] (S3P maintained at 1 mM, PEP 0.05-1.0 mM, Eadie-Hofstee) was 79.2 ± 32 µM.

With `O=C(O)CNCP(=O)(O)O` [glyphosate], the Ki/Km in series [1] (Ki (glyphosate) / Km (PEP)) is 2.16. Further, the “glyphosate resistance (highest glyphosate concentration allowing growth)” value is 250 mM in series [2] and 200 mM in series [3]. Moreover, in series [4], the “growth of transgenic plants in medium with 20 mM glyphosate” value is “could grow well”.

B1: GR-79 EPSP: new type I EPSP synthase with high glyphosate resistance, 445 amino acids, SEQ ID NO:1 (protein)
chain: MSHSTSRSPWSKATEYHEALVTPTSNKINGEIFVPGSKSYTNRALIIAALAEGTSTLKGILKSDDSYWCIDALRRLGIKIEVAEETVTIHGCGGKWPVQSAELFIGAAGTIARFLPGALAVAQQGEWIVDGVPQLRERPLKPLVDALTQLGGRIEYLTEHPGLPLRVKGAGLSGQHVRVPGNVSSQFLSGLLIASPYASEAVSIEVINGLVQPSYIAITIQLMREFGAKVEHNEDYSLFKVYPTGYQGRDTILEADASTACYFLSLAALTGGTIQVKNVGYHSYQPDARFIDVLEQMGCEVIKNESFLEVTGPTRLKGGFEVDMKPMSDQALTIGALAPFADAPIRVTNVAHIRAHESDRIAVICSSLQQMGVQVEEREDGFTIYPGQPVGTTLNPHDDHRNAMVFGLLGVKVPHIRIVDPGCVSKTCPAYFEELQKFGIHVEYN
modifications: From a mixture of organisms
B1 gave an enzyme activity in series [5] of 10.477 U/mg.
